PubChem BioAssay AID1963839 (Molecular Pharmacology Branch, DTP, NCI, 2024)

Test system: 817829-284-R-J1-PDC complex spheroid viability
Assay: Anticancer human tumor 817829-284-R-J1-PDC patient-derived colon adenocarcinoma cell line growth inhibition [POLQ]
Settings: for IC50: curve of first compound; for viability, T/C: stronger effect = lower value
How it was run: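 Growth inhibition in 3D: complex spheroids (tumor PDC, HUVEC, MSC) treated with POLQ inhibitor combinations; where Cmax unknown, highest tested concentration 10 microM, except SN-38 at 1 microM.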
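Also: spheroids exposed to compounds for 7 days.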
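For viability, T/C in this document: 100% = DMSO vehicle-treated spheroids.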

For `CC1COCCN1c1cc(-c2ccnn2C)c2ccnc(-c3ccn[nH]3)c2n1` (configuration not stated) + Cc1cccc(N(C)C(=O)C2C(O)CCN2c2nc(C)cc(C(F)(F)F)c2C#N)c1, the IC50 (second compound 0.0316 µM) was under 31.6 nM, the IC50 (second compound 0.1 µM) was under 31.6 nM and the IC50 (second compound 0.316 µM) was under 31.6 nM. It also gave an IC50 (second compound 1 µM) of under 31.6 nM, an IC50 (second compound 3.16 µM) of 32.7 nM and an IC50 (second compound 10 µM) of under 31.6 nM. For the same compound, the viability, T/C (second compound 0.0316 µM, first compound 0.0316 µM) was 36.6%, the viability, T/C (second compound 0.0316 µM, first compound 0.1 µM) was 19.1% and the viability, T/C (second compound 0.0316 µM, first compound 0.316 µM) was 6.76%. For the same compound, the viability, T/C (second compound 0.0316 µM, first compound 1 µM) was 4.35%, the viability, T/C (second compound 0.0316 µM, first compound 3.16 µM) was 3.09% and the viability, T/C (second compound 0.0316 µM, first compound 10 µM) was 2.85%. For the same compound, the viability, T/C (second compound 0.1 µM, first compound 0.0316 µM) was 33.4%, the viability, T/C (second compound 0.1 µM, first compound 0.1 µM) was 16.9% and the viability, T/C (second compound 0.1 µM, first compound 0.316 µM) was 7.78%. It also gave a viability, T/C (second compound 0.1 µM, first compound 1 µM) of 4.15%, a viability, T/C (second compound 0.1 µM, first compound 3.16 µM) of 3.55% and a viability, T/C (second compound 0.1 µM, first compound 10 µM) of 2.55%. For the same compound, the viability, T/C (second compound 0.316 µM, first compound 0.0316 µM) was 45.2%, the viability, T/C (second compound 0.316 µM, first compound 0.1 µM) was 15.3% and the viability, T/C (second compound 0.316 µM, first compound 0.316 µM) was 6.75%. It also gave a viability, T/C (second compound 0.316 µM, first compound 1 µM) of 4.29%, a viability, T/C (second compound 0.316 µM, first compound 3.16 µM) of 3.67% and a viability, T/C (second compound 0.316 µM, first compound 10 µM) of 2.6%. For the same compound, the viability, T/C (second compound 1 µM, first compound 0.0316 µM) was 33.9%, the viability, T/C (second compound 1 µM, first compound 0.1 µM) was 13.1% and the viability, T/C (second compound 1 µM, first compound 0.316 µM) was 5.41%. It also gave a viability, T/C (second compound 1 µM, first compound 1 µM) of 4.86%, a viability, T/C (second compound 1 µM, first compound 3.16 µM) of 3.3% and a viability, T/C (second compound 1 µM, first compound 10 µM) of 2.87%. It also gave a viability, T/C (second compound 3.16 µM, first compound 0.0316 µM) of 50.8%, a viability, T/C (second compound 3.16 µM, first compound 0.1 µM) of 21.9% and a viability, T/C (second compound 3.16 µM, first compound 0.316 µM) of 5.75%. The viability, T/C (second compound 3.16 µM, first compound 1 µM) was 3.57%, the viability, T/C (second compound 3.16 µM, first compound 3.16 µM) was 3.34% and the viability, T/C (second compound 3.16 µM, first compound 10 µM) was 3.14%. For the same compound, the viability, T/C (second compound 10 µM, first compound 0.0316 µM) was 36.6%, the viability, T/C (second compound 10 µM, first compound 0.1 µM) was 20% and the viability, T/C (second compound 10 µM, first compound 0.316 µM) was 7.43%. The viability, T/C (second compound 10 µM, first compound 1 µM) was 4.51%, the viability, T/C (second compound 10 µM, first compound 3.16 µM) was 3.57% and the viability, T/C (second compound 10 µM, first compound 10 µM) was 2.62%.
